In ChEMBL document CHEMBL5506038, “Discovery of LC-MI-3: A Potent and Orally Bioavailable Degrader of Interleukin-1 Receptor-Associated Kinase 4 for the Treatment of Inflammatory Diseases” (J Med Chem, 2024):
Calls of active or inactive are those of the source. No cut-off for these calls is given here.

How the values were obtained:
RAW264.7 [1] = experiment: Effect on TNFalpha mRNA expression in LPS-induced mouse RAW264.7 cells at 1 uM pretreated with compound for 1 hr followed by LPS-induction and measured after 6 hrs by RT-PCR analysis; format: functional, cell-based; details: time 7.0 hrs
[2] = Cmax in Sprague-Dawley rat at 2 mg/kg, iv by LC-MS/MS analysis; format: ADME, organism-based; details: in vivo
[3] = biological target: Protein cereblon/Interleukin-1 receptor-associated kinase 4 (Homo sapiens, UniProt Q9NWZ3+Q96SW2); experiment: PROTAC activity at IRAK4/CRBN in human PBMC cells assessed as reduction in IRAK4 level at 100 nM incubated for 12 hrs by Western blot analysis; format: cell-based
Protein cereblon/Interleukin-1 receptor-associated kinase 4, sequence (Q96SW2 whole entry, looked up, one chain of several): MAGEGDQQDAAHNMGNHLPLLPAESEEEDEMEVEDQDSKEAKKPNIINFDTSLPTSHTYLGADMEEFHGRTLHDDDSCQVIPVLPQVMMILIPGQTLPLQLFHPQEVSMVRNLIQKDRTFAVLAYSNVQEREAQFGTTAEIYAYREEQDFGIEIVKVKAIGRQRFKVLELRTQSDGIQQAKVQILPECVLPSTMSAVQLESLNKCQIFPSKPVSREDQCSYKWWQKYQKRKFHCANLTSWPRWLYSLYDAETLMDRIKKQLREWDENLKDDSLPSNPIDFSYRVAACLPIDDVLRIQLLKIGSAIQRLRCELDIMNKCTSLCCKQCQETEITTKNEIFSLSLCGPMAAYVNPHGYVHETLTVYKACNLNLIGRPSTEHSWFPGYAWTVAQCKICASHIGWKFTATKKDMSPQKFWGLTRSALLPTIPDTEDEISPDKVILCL

Mus musculus [4] = experiment: Anti-inflammatory activity in imiquimod-induced C57BL/6 mouse psoriasis model assessed as […] in skin thickness at 20 mg/kg, po administered twice daily measured on day 7 by H and E staining based analysis; format: functional, organism-based; details: time 7.0 day
[5] = biological target: DNA-binding protein Ikaros (Homo sapiens) (UniProt Q13422); experiment: Induction of IKZF1 degradation in human THP-1 cells upto 10000 nM incubated for 12 hrs by Western blotting analysis; format: cell-based
DNA-binding protein Ikaros (Homo sapiens), sequence (Q13422 whole entry): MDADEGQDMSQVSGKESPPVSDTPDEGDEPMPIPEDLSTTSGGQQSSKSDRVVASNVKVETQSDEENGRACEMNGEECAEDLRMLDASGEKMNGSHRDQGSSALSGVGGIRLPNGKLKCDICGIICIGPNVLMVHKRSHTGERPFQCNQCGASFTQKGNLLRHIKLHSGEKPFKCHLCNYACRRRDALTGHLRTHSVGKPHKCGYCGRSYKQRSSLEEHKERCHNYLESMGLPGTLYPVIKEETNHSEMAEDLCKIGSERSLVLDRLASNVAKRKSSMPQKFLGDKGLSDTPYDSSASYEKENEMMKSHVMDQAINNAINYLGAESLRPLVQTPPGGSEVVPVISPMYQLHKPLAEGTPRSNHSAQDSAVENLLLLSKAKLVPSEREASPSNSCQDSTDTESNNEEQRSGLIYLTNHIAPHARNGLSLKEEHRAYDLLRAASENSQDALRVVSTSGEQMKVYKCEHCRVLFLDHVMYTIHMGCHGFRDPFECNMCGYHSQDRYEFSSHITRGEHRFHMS

[6] = biological target: Zinc finger protein Aiolos (Homo sapiens) (UniProt Q9UKT9); experiment: Induction of IKZF3 degradation in human THP-1 cells upto 10000 nM incubated for 12 hrs by Western blotting analysis; format: cell-based
Zinc finger protein Aiolos (Homo sapiens), sequence (Q9UKT9 whole entry): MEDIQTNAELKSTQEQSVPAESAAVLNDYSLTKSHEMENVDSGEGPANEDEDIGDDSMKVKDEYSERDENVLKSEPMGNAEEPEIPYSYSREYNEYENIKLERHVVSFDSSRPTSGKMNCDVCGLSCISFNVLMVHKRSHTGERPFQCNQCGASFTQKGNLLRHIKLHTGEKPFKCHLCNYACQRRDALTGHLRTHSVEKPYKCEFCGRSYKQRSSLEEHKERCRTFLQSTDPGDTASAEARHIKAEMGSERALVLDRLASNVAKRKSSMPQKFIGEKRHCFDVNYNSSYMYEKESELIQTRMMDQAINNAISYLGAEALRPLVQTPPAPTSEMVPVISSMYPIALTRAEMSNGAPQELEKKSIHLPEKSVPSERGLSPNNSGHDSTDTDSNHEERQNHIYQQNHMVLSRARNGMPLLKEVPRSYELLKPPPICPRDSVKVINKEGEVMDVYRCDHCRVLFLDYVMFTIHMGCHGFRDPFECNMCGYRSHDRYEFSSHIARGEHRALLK

RAW264.7 [7] = experiment: Protection against Escherichia coli-induced sepsis in mouse RAW264.7 cells assessed as reduction in IL-6 level at 1 uM pretreated with compound for 6 hrs followed by Escherichia coli-induction and measured after 6 hrs by RT-PCR analysis; format: functional, cell-based; details: time 12.0 hrs
[8] = biological target: T1, Interleukin-1 receptor-associated kinase 4 (Homo sapiens, UniProt Q9NWZ3); experiment: Inhibition of IRAK4 (unknown origin)
T1 sequence (Q9NWZ3 whole entry): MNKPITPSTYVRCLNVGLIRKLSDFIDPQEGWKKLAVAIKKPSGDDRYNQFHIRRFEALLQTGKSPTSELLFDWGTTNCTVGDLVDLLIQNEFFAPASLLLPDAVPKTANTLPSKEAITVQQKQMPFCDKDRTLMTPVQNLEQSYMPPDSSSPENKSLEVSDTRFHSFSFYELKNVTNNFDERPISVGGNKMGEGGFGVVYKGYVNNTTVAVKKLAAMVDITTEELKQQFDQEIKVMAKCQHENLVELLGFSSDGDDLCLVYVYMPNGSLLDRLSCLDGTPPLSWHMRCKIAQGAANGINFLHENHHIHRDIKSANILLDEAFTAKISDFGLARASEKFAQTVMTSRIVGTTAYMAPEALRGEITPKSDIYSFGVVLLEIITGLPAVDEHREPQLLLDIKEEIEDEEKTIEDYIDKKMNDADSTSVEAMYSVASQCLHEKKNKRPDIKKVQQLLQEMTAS

Mus musculus [9] = experiment: Anti-inflammatory activity against LPS-induced acute […] injury C57BL/6 mouse model assessed as reduction in TNF-alpha level in BALF at 20 mg/kg, IG pretreated with compound for 12 hrs followed by LPS-induction and measured after 6 hrs by ELISA analysis; format: functional, organism-based; details: time 18.0 hrs
RAW264.7 [10] = experiment: Protection against Escherichia coli-induced sepsis in mouse RAW264.7 cells assessed as reduction in TNF-alpha production at 1 uM pretreated with compound for 6 hrs followed by Escherichia coli-induction and measured after 6 hrs by ELISA analysis; format: functional, cell-based; details: time 12.0 hrs
RAW264.7 [11] = experiment: Activation of NF-kappaB pathway in LPS-induced mouse RAW264.7 cells expressing EGFP at 5 uM pretreated with compound for 1 hr followed by LPS-induction and measured at 15 min by flow cytometry analysis; format: cell-based; details: filed as activator, time 75.0 min
Mus musculus [12] = experiment: Anti-inflammatory activity against LPS-induced acute […] injury C57BL/6 mouse model assessed as reduction in IL-6 level in BALF at 20 mg/kg, IG pretreated with compound for 12 hrs followed by LPS-induction and measured after 6 hrs by ELISA analysis; format: functional, organism-based; details: time 18.0 hrs
[13] = Tmax in Sprague-Dawley rat at 20 mg/kg, po by LC-MS/MS analysis; format: ADME, organism-based; details: in vivo
[14] = AUC (0 to infinity) in Sprague-Dawley rat at 2 mg/kg, iv by LC-MS/MS analysis; format: ADME, organism-based; details: in vivo
[15] = Drug metabolism in rat hepatocyte assessed as mono-hydroxylation mediated metabolite formation by LC-MS/MS analysis; format: ADME, cell-based; details: hepatocytes
Mus musculus [16] = experiment: Anti-inflammatory activity in imiquimod-induced C57BL/6 mouse psoriasis model assessed as improvement in scaling at 20 mg/kg, po administered twice daily measured for 6 days; format: functional, organism-based; details: time 6.0 day
Mus musculus [17] = experiment: Anti-inflammatory activity in imiquimod-induced C57BL/6 mouse psoriasis model assessed as improvement in swelling at 20 mg/kg, po administered twice daily measured for 6 days; format: functional, organism-based; details: time 6.0 day
RAW264.7 [18] = experiment: Protection against Escherichia coli-induced sepsis in mouse RAW264.7 cells assessed as reduction in IL-6 production at 1 uM pretreated with compound for 6 hrs followed by Escherichia coli-induction and measured after 6 hrs by ELISA analysis; format: functional, cell-based; details: time 12.0 hrs
[19] = biological target: MAP kinase p38 (Mus musculus) (UniProt P47811+O08911+Q9WUI1+Q9Z1B7); experiment: Inhibition of MAPK phosphorylation in LPS-induced mouse RAW264.7 cells at 1 uM pretreated with compound for 1 hr followed by LPS-induction and measured after 2 hrs by Western blot analysis; format: cell-based; details: time 3.0 hrs
[20] = Cmax in Sprague-Dawley rat at 20 mg/kg, po by LC-MS/MS analysis; format: ADME, organism-based; details: in vivo
[21] = Toxicity in C57BL/6 mouse assessed as lung damage at 20 mg/kg, IG by H and E staining based analysis; format: organism-based; details: in vivo, po

Cmax [2]: 2920 ng/mL | Activity [3]: Active | Activity [5]: inactive | Activity [6]: inactive | IC50 [8]: < 100 nM | Tmax [13]: 30 min | AUC(0-inf) [14]: 1330 ng·h/mL | Drug metabolism [15]: Metabolite_Detected | inhibition [19]: Active | Cmax [20]: 440 ng/mL
Compound: COc1cc(N2CCN(C(=O)CCOCC#Cc3ccc4c(c3)C(=O)N(C3CCC(=O)NC3=O)C4=O)CC2)ccc1NC(=O)c1cccc(-c2ccn[nH]2)n1 (stereo unspecified)
Activity (RAW264.7 [1]): Active | Activity (Mus musculus [4]): Active | Activity (RAW264.7 [7]): Active | Activity (Mus musculus [9]): Active | Activity (RAW264.7 [10]): Active | Activity (RAW264.7 [11]): Active | Activity (Mus musculus [12]): Active | Activity (Mus musculus [16]): Active | Activity (Mus musculus [17]): Active | Activity (RAW264.7 [18]): Active | Activity [21]: Non-Toxic
